Assay results taken from PubChem BioAssay (NCI).
Values joined by “and” are separate entries in the source; they are usually repeats but may differ in a detail not shown here. Identical values can stand only once.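 Five concentrations, 48 hours, 96-well plates. At the GI50, growth is halved. At the TGI there is no net growth.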

Experiments:
Assay in all cases: inhibition of tumour cell growth, NCI panel, 48 h
[1] = test system: U251 CNS
[2] = test system: M14 melanoma
[3] = test system: SF-539 CNS
[4] = test system: NCI/ADR-RES ovarian
[5] = test system: HL-60(TB) leukemia
[6] = test system: HT29 colon
[7] = test system: SF-295 CNS
[8] = test system: UACC-62 melanoma
[9] = test system: NCI-H522 lung
[10] = test system: A498 renal

| Structure (SMILES) | GI50 [1] | TGI [1] | GI50 [2] | TGI [2] | GI50 [3] | TGI [3] | GI50 [4] | TGI [4] | GI50 [5] | TGI [5] | GI50 [6] | TGI [6] | GI50 [7] | TGI [7] | GI50 [8] | TGI [8] | GI50 [9] | TGI [9] | GI50 [10] | TGI [10] |
| --- | --- | --- | --- | --- | --- | --- | --- | --- | --- | --- | --- | --- | --- | --- | --- | --- | --- | --- | --- | --- |
| O=C(CN1CCN(c2ncccn2)CC1)Nc1ccc(Cl)cc1C(=O)c1ccccc1Cl | > 100 µM | > 100 µM | > 100 µM | > 100 µM | > 100 µM | > 100 µM | > 100 µM | > 100 µM | 25.3 µM | > 100 µM | 63.6 µM | > 100 µM | > 100 µM | > 100 µM | 92.8 µM | > 100 µM | 46.6 µM | > 100 µM | > 100 µM | > 100 µM |
| Cc1ncc(CN=Cc2ccc(Cl)cc2)c(N)n1 |  | > 100 µM |  | > 100 µM |  | > 100 µM |  | > 100 µM |  | > 100 µM |  | > 100 µM |  | > 100 µM |  | > 100 µM |  | > 100 µM |  | > 100 µM |
| C=CCn1c2c(c3ccccc3c1=O)C(=O)c1ccccc1-2 |  | > 100 µM |  | > 100 µM |  | > 100 µM |  | > 100 µM |  | > 100 µM |  | > 100 µM |  | > 100 µM |  | > 100 µM |  | > 100 µM |  | > 100 µM |
| CS(=O)(=O)CCNCc1nc(-c2ccc3ncnc(Nc4ccc(F)c(Cl)c4)c3c2)cs1 | > 25 µM | > 25 µM | 21.5 µM | > 25 µM | > 25 µM | > 25 µM | 13.9 µM | > 25 µM | > 12.3 µM | > 17.8 µM | 16.5 µM | > 25 µM | > 25 µM | > 25 µM | 17.6 µM | > 25 µM | 3.34 µM | > 25 µM | 3.32 µM | 20.5 µM |
| O=C1NCc2ccc3c(-c4cccc(Cl)c4)c[nH]c3c21 | 0.247 µM | > 50 µM | 0.147 µM | > 50 µM | 0.166 µM | 3.29 µM | 0.175 µM | > 50 µM | 0.146 µM |  | 0.18 µM | > 50 µM | 0.199 µM | > 50 µM | 0.278 µM | > 50 µM | 0.225 µM | > 39 µM | 0.058 µM | 0.671 µM |
| C[C@@H]1C[C@@H](O)[C@]2(O)O[C@@H]3C[C@@]4(C=O)[C@@H](CC[C@@H]5[C@@H]4CC[C@]4(C)[C@@H](C6=CC(=O)OC6)CC[C@]54O)C[C@H]3O[C@@H]2O1 | 0.0449 µM and 0.0153 µM | 0.0725 µM and 0.158 µM and 0.0697 µM | 0.0891 µM and 0.0324 µM | 0.074 µM and 0.232 µM and 0.2 µM | 0.015 µM and 0.005 µM | 0.0146 µM and 0.037 µM and 0.0144 µM |  | 0.118 µM | 0.015 µM and 0.00692 µM | 0.0285 µM and 0.0322 µM and 0.0169 µM | 0.0534 µM and 0.0141 µM | 0.0734 µM and 0.198 µM and 0.0745 µM | 0.0365 µM and 0.00869 µM | 0.0616 µM and 0.189 µM and 0.139 µM | 0.0515 µM and 0.0216 µM | 0.0465 µM and 0.213 µM and 0.0895 µM | 0.00751 µM |  | 0.00998 µM | 0.115 µM and 0.0399 µM |
| CN1CC[C@@H](c2c(O)cc(O)c3c(=O)cc(-c4ccccc4Cl)oc23)[C@@H](O)C1 |  | 31 µM | 0.0771 µM and 0.0278 µM | 0.225 µM and 0.226 µM and 0.104 µM | 0.0688 µM and 0.0197 µM | 0.141 µM and 0.057 µM and 0.148 µM | 0.256 µM and 0.0763 µM |  | 0.0148 µM | 0.0693 µM and 0.338 µM | 0.178 µM | 24.8 µM | 0.0994 µM and 0.0955 µM and 0.0425 µM |  | 0.0571 µM and 0.0424 µM | 0.133 µM and 0.182 µM and 0.102 µM |  | 0.222 µM and 0.319 µM | 0.0604 µM | 0.181 µM and 1.13 µM |
| CC(=O)Nc1ccc2c(c1)c(C1=C(c3cn(C)c4ccccc34)C(=O)NC1=O)cn2C | 1.16 µM | > 25 µM | 1.5 µM | > 25 µM | 0.671 µM | 1.97 µM | 1.58 µM | > 25 µM | 0.913 µM | 4.9 µM | 0.925 µM | > 25 µM | 1.18 µM | > 25 µM | 1.15 µM | > 25 µM | 0.702 µM | > 6.59 µM | 0.538 µM | 1.79 µM |
| COc1cc(O)c([C@@H]2C[C@H](CCc3ccc(O)cc3)O[C@H](c3ccc(O)cc3)C2)c(O)c1C(=O)/C=C/c1ccc(O)cc1 | 2.81 µM | 9.22 µM | 3.24 µM | 9.3 µM | 2.23 µM | 4.98 µM | 5.53 µM | 25.5 µM | 2.13 µM | 5.2 µM | 3.31 µM | 10.2 µM | 3.83 µM | 17.9 µM | 2.38 µM | 5.92 µM | 2.73 µM | 8.52 µM | 4.24 µM | 11.3 µM |
| COc1ccc(C(=O)/C(Br)=C/C(=O)O)cc1 |  | 46.5 µM and 52.1 µM | 52.9 µM | 79.3 µM and 120 µM | 9.18 µM and 27.3 µM | 90.7 µM and 87.3 µM | 18.3 µM | 387 µM and 116 µM | 19.1 µM | 95.7 µM and 128 µM | 59.4 µM | 658 µM and 491 µM | 33.5 µM | 175 µM and 140 µM | 12.3 µM | 45.3 µM and 32.3 µM | 13.3 µM | 50.4 µM and 22.9 µM | 58.3 µM | 192 µM and 77.3 µM |
| COc1ccc(-c2nn3ncccc3c2-c2ccnc(Nc3ccc(Cl)c(C(F)(F)F)c3)n2)cc1 | 12.4 µM | > 25 µM | 11.5 µM | > 25 µM | > 18.9 µM | > 25 µM | 7.62 µM | > 25 µM | 11.9 µM | > 25 µM | 9.88 µM | > 25 µM | 9.96 µM | > 25 µM | 9.36 µM | > 25 µM | 12.4 µM | > 25 µM | 6.52 µM | > 25 µM |
| COc1cc(-c2nn(-c3ccc(NC(=O)c4ccc(Cl)c(Cl)c4)cc3)cc2-c2ccncc2)ccc1Cl | 5.7 µM | > 100 µM | 22.4 µM | > 100 µM | 2.85 µM | > 100 µM | 7.16 µM | > 100 µM | 8.03 µM | > 100 µM | 2.9 µM | > 100 µM | 1.94 µM | 4.57 µM | 6.34 µM | > 100 µM | > 100 µM | > 100 µM | 5.25 µM | > 100 µM |
| COc1cc(C2CC(c3ccc(C)cc3)=NN2C=O)ccc1Oc1ccnc2cc(Cl)ccc12 (configuration not stated) | 6.5 µM | 21.4 µM | 14.2 µM | > 50 µM | 3.85 µM | 27 µM | > 50 µM | > 50 µM | > 50 µM | > 50 µM | > 50 µM | > 50 µM | 4.41 µM | 23.7 µM | 11.2 µM | > 50 µM | 2.72 µM | > 50 µM | 5.73 µM | 23.1 µM |
